Converted amounts (≈) assume the structure as drawn.
Key:
[1] = tested on: Plasmodium falciparum 3D7 sensitive strain; assay: SYBR Green growth assay, asexual blood stages, 3D7 sensitive strain; assay type: cell-based; conditions: Plasmodium falciparum, 3D7, 72 h, asexual blood stages, 3D7 sensitive strain, 72 h; read-out: IC50
Procedure: (§1) Parasite strains SB1-A6, 7G8, V1/S, and HB3 were acquired from BEI-MR4, while the ATQ R1 strain, carrying a V259L gene mutation, was generated in-house. […] Parasitemia was monitored using Giemsa-stained blood smears.
(§2) Bioassays were conducted with synchronized ring-stage parasites using sorbitol synchronization. Antimalarial compounds were evaluated in 96-well plates, and parasite growth was assessed using a SYBR Green-based fluorescence assay The assays were conducted when the parasite quantity reached at least 70% of the ring stage. Compounds were initially added at specific concentrations in the first wells, followed by serial dilution (1:2) ranging from 20 μM to 0.009 μM. Subsequently, a solution containing parasites in RPMI medium at a hematocrit of 2% was added to each well, and the parasites were then incubated for 72 h.
(§3) The IC50 values were determined using concentration–response curves generated in GraphPad 8 software. Additionally, the resistance index was calculated by comparing IC50 values obtained for the sensitive 3D7 strain with those of the resistant strains.

[2] = tested on: P. falciparum HB3 strain; assay: SYBR Green growth assay, asexual blood stages, HB3 strain; assay type: cell-based, Plasmodium falciparum; conditions: Plasmodium falciparum; HB3 strain, 72 h; read-out: IC50
Procedure: as §1, §2, §3

[3] = tested on: P. falciparum V1/S strain; assay: microbe, parasite or virus in culture; assay type: cell-based, Plasmodium falciparum; conditions: Plasmodium falciparum, 72 h
Procedure: (§4) Healthy blood samples for parasite culture were obtained from voluntary donors (approved under protocol #28176720.9.0000.0011), processed to remove white blood cells, and stored at 2 °C–8 °C for up to 15 days. Parasite strains SB1-A6, 7G8, V1/S, and HB3 were acquired from BEI-MR4, while the ATQ R1 strain, carrying a V259L gene mutation, was generated in-house. Infected erythrocytes were cultured in RPMI 1640 medium supplemented with Hepes, sodium bicarbonate, glucose, Albumax, and gentamicin, […], and incubated in a 5% CO2, 5% O2, and 90% N2 gas mixture at 37 °C with daily medium changes. Parasitemia was monitored using Giemsa-stained blood smears.
as §2
(§5) To assess parasite growth, the culture medium was replaced with a lysis solution (Trisbase: 49.31%, EDTA: 30.00%, Saponin: 0.16%, Triton: 0.02%) containing the fluorescent dye SYBR Green (Sigma). After a 30 min incubation, fluorescence readings were taken to determine the 50% inhibitory concentration (IC50) of parasite growth. The IC50 values were determined using concentration–response curves generated in GraphPad 8 software. Additionally, the resistance index was calculated by comparing IC50 values obtained for the sensitive 3D7 strain with those of the resistant strains.

[4] = tested on: P. falciparum 7G8 strain; assay: SYBR Green growth assay, asexual blood stages, 7G8 strain; assay type: cell-based, Plasmodium falciparum; conditions: Plasmodium falciparum; 7G8 strain, 72 h; read-out: IC50
Procedure: as §4, §2, §5

[5] = tested on: P. falciparum SB1-A6 strain; assay: SYBR Green growth assay, asexual blood stages, SB1-A6 strain; assay type: cell-based, Plasmodium falciparum; conditions: Plasmodium falciparum, 72 h
Procedure: as §4, §2, §5

[6] = tested on: P. falciparum ATQ_R1 strain; assay: SYBR Green growth assay, asexual blood stages, ATQ_R1 strain; assay type: cell-based, Plasmodium falciparum; conditions: Plasmodium falciparum, 72 h
Procedure: as §4, §2, §5

[7] = tested on: P. vivax ookinetes; assay: Ex vivo P. vivax ookinete formation assay with patient isolates; assay type: cell-based, Plasmodium vivax; conditions: Plasmodium vivax, 24 h, 10 μM, n = 6 patients, read-out: P. vivax ookinete formation inhibition (median)
Procedure: Participants were recruited from patients diagnosed with P. vivax malaria via Giemsa-stained blood smears at CEPEM in Porto Velho, Rondônia, Brazil (#28176720.9.0000.0011). Criteria included: P. vivax parasitemia >2000 parasites/μL, age 18–85, no severe malaria, no concomitant diseases, nonpregnant, and consent to study procedures. Approximately 10 mL of venous blood was collected into heparin-coated vials, maintained at 37 °C, and transported to PIVEM for DMFA. Malaria treatment followed Brazilian Ministry of Health guidelines and was unaffected by study participation. […] Erythrocytes were washed with incomplete RPMI-1640 medium by centrifugation at 1500 rpm for 10 min to remove leukocytes. […] The sample was centrifuged once at 450 g for 15 min without a brake. After centrifugation, the pellet remaining at the interface was collected and washed twice at 2000 g for 5 min. […] The parasites were incubated for 24 h at a temperature of 21–24 °C. After this period, the activity of the compounds was determined by microscopy, counting 100 fields to determine the parasitemia per μL in each sample, and counting the mature and immature ookinetes. […] Red blood cells were then washed with incomplete RPMI-1640 medium through centrifugation at 1500 rpm for 10 min to remove leukocytes. […] The sample was centrifuged once at 2000 rpm for 15 min without brake. After centrifugation, the remaining pellet at the interface was collected and washed twice at 2000 rpm for 5 min. […] Parasites were incubated for 24 h at a temperature of 21–24 °C. After this period, compound activity was determined by microscopy counting in 100 fields to determine parasitemia per μL in each sample.

[8] = tested on: HepG2 cells; assay: Mitochondrial toxicity, HepG2 cells cultured in glucose or galactose (resazurin); assay type: cell-based; conditions: HepG2 under either condition (glucose or galactose), 3.125–50 μM, 24 h
Procedure: To evaluate mitochondrial toxicity, HepG2 cells were cultured in RPMI-1640 medium under two metabolic conditions: one group was maintained in standard RPMI supplemented with 2 g/L glucose (glucose condition), while the second group was gradually adapted to rely on galactose as the primary energy source. For this adaptation, glucose levels were reduced by 20% every 2 days until reaching a final concentration of 20% of the original glucose amount. On the day of the assay, the […] cells were cultured in glucose-free RPMI medium supplemented with 10 mM galactose. When cells reached 80% confluence, they were detached using 2 mL of trypsin-EDTA solution (0.2 g of EDTA) for 5 min at 37 °C, then resuspended in fresh medium and centrifuged at 100 × g for 1 min. After centrifugation, cells were counted using a Neubauer chamber and seeded at […] per well in 96-well plates containing 180 μL of culture medium. Plates were incubated at 37 °C with 5% CO2 for 12–16 h to allow for cell adhesion. […] After treatment, 40 μL of a 0.15 mg/mL resazurin solution (RSZ) was added to each well and incubated for an additional 5 h. RSZ is a nontoxic, cell-permeable blue dye that is reduced by metabolically active cells to highly fluorescent pink resorufin. Fluorescence was measured using a fluorimeter with excitation/emission at 560/590 nm. Cell viability was calculated relative to untreated controls (set at 100%), determined using GraphPad Prism 8.

[9] = tested on: 164/GFP; conditions: strain 164/GFP; cited from earlier work
[10] = tested on: TM90C2B; conditions: strain TM90C2B; cited from earlier work
[11] = tested on: P. falciparum oocysts in An. freeborni; parameters: method as in Sáenz et al.; conditions: early stage gametocyte treatments; ref Sáenz et al.; cited from earlier work
[12] = tested on: P. falciparum salivary gland infections in mosquitoes; parameters: method as in Sáenz et al.; conditions: drug-treated blood at 1 μM, compared to untreated control; ref Sáenz et al.; cited from earlier work
[13] = tested on: P. falciparum hepatic stages; conditions: cited from earlier work

O=C1C(O)=C([C@H]2CC[C@H](c3ccc(Cl)cc3)CC2)C(=O)c2ccccc21 [Atovaquone, atovaquone, reference compound]
IC50 [1]: 1 ± 0.4 nM | IC50 [2]: 0.7 ± 0.4 nM | IC50 [3]: 9 ± 0.8 nM | IC50 [4]: 6 ± 4 nM | IC50 [5]: > 10000 nM | IC50 [6]: > 10000 nM | inhibition at 10 µM [7]: 97% | cell survival [8]: ≥ 60%

CCCCCCCCCCOc1cc2c(O)c(C(=O)OCC)cnc2cc1OCC [Decoquinate]
IC50 [9]: 10 nM

CCCCCCCc1c(C)[nH]c2cc(F)cc(F)c2c1=O [ELQ-121]
IC50 [10]: 1.7 nM

CCCCc1cc2c(=O)c(C(=O)OCC)c[nH]c2cc1OCCOc1ccccc1 [ICI 56.780]
reduction in oocyst numbers [11]: 100% | reduction of salivary gland infections [12]: 80%

N[C@@H]1[C@H]2CN(c3nc4c(cc3F)c(=O)c(C(=O)O)cn4-c3ccc(F)cc3F)C[C@@H]12 [trovafloxacin]
IC50 P. falciparum hepatic stages [13]: 21.6 ± 2.6 µg/mL (≈ 51.9 µM)

— publication PMC12631437, “Evaluation of the Activity of 4‑Quinolones against Multi-Life Stages of Plasmodium spp” (ACS Omega, 2025)
